Source: EP4159743A1, “METHODS FOR PREPARING PYRIDAZINE COMPOUNDS” (ETH Zurich, priority 2021, dated 2023)

Test: Kinetics measurements, control sample: decrease in absorption of the tetrazine alone over time
Assay type: physicochemical
Conditions: absorption at 525 nm monitored over time, trypsin buffer
Description: For kinetic measurements, 196 µL trypsin buffer was added with 2 µL of a 10 mM stock solution of compound 1 in DMSO (final concentration 100 µM) and 2 µL of a 10 mM stock solution of 3,6-di-2-pyridyl-1,2,4,5-tetrazine in DMSO (final concentration 100 µM) in a quartz cuvette. The sample was mixed well and absorption at 525 nm was monitored over time, measuring every minute. Measurements were done in triplicates. […] This was subtracted from the kinetic measurements. The obtained absorbance values were converted to concentrations through a standard curve and were plotted as the reciprocal concentration of the tetrazine reagent versus time to yield a second-order rate constant. Data analysis and statistical analysis were done in Microsoft Excel (2016) and Prism 7 (GraphPad).

rate constant (decrease in absorption over time, fitted to a first-order reaction equation): 2.96e-05 s⁻¹
SMILES: c1ccc(-c2nnc(-c3ccccn3)nn2)nc1 [3,6-di-2-pyridyl-1,2,4,5-tetrazine]
